Results published in ChEMBL document CHEMBL1201862, “PubChem BioAssay data set” (2004).
Calls of active or inactive are those of the source.

What was measured:
[1] = A549 cell cytotoxicity, dose response, cytotoxicity control, plate reader, cherry-pick, antagonist series (AID 743412); format: functional, cell-based
[2] = toxicity toward HepG2 liver cells – cell-based, plate reader, cherry-pick, antagonist series, cytotoxicity control, dose response (AID 743416); format: functional
[3] = blockade of melanocortin 4 receptor signaling – cell-based, plate reader, cherry pick, counter-screen for LGR2 antagonist project, dose response (AID 743444); format: functional;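 note: transfected HEK 293 cells stimulated with alpha-MSH peptide; potency of inhibitors of the alpha-MSH evoked signal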
[4] = Luminescence Cell-Based Dose Response HTS to Identify Inhibitors of 5'UTR Stem-Loop Driven Prion Protein mRNA Translation in H4 Neuroglioblastoma Cells. [Related pubchem assays: 1827 (Project Summary), 1813 (Primary HTS)]; format: functional
[5] = target: T1, Oxysterols receptor LXR-beta (Homo sapiens, UniProt P55055); format: functional, cell-based;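 note: Cell-based luminescence dose-response assay of agonist activity at LXR, run as a confirmatory counterscreen to a daf-12 agonist screen; HEK293 cells with Gal4-LXR fusion and GAL4-driven luciferase reporter; agonist potency from rising luciferase signal of a Gal4-LXR reporter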
T1 sequence (P55055 whole entry): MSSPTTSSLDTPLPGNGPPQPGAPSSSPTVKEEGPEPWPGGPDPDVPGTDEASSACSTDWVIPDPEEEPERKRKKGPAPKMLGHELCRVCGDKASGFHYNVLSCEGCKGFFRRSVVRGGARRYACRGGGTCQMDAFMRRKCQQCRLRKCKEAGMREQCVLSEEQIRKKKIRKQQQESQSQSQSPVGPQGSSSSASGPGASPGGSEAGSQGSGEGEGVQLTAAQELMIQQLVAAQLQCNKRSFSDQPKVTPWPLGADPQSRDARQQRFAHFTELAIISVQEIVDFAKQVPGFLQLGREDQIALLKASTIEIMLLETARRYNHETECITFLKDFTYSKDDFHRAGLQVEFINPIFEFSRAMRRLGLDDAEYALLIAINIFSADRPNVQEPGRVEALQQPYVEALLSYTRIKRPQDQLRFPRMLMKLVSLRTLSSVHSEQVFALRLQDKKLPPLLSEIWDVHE

[6] = blockers of bursicon-stimulated LGR2 cAMP reporter – cell-based, HEK293, CRE-luciferase reporter, cherry pick, set 2, dose response (AID 743343); format: functional;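 note: transfected cells were stimulated with diluted bursicon conditioned medium after compound addition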
[7] = LMP1-induced NF-kB luciferase signal inhibition – cell-based, EBV LMP1, dry powder, set 2, dose response (AID 624361); format: functional
[8] = target: NAD-dependent protein deacylase sirtuin-5, mitochondrial (Homo sapiens, UniProt Q9NXA8); assay: blockers of sirtuin-5 peptide desuccinylation – biochemical, fluorescence imaging, cherry-pick, set 6, dose response (AID 720597)
[9] = target: Photoreceptor-specific nuclear receptor (Homo sapiens, UniProt Q9Y5X4); assay: ligands suppressing NR2E3 nuclear receptor activity – biochemical, TR-FRET, dose response (AID 463256); format: functional
[10] = target: Peroxisome proliferator-activated receptor gamma/Nuclear receptor corepressor 2 (Homo sapiens, UniProt P37231+Q9Y618); assay: Counterscreen for NR2E3 inverse agonists: TR-FRET-based biochemical high throughput dose response assay to identify inverse agonists of the interaction between peroxisome proliferator-activated receptor gamma (PPARg) and nuclear receptor co-repressor 2 (NCOR2).; format: functional
[11] = Luminescence Cell-Based Dose Response HTS to Identify Activators of Luciferase Translation or Activity in H4 […] Cells. [Related pubchem assays: 1829 (Project Summary), 1814 (Primary HTS)]; format: functional
[12] = target: Aryl hydrocarbon receptor (Homo sapiens, UniProt P35869); assay: Luminescence-based cell-based high throughput dose response assay for activators of the Aryl Hydrocarbon Receptor (AHR). [Related pubchem assays: 2796 (Primary screen (AHR activators in singlicate)), 2845 (Confirmation screen (AHR activators in triplicate)), 434939 (Counterscreen (PXR activators in triplicate)), 2804 (Summary (AHR activators))]; format: ADME
H4 = assay: Luminescence Cell-Based Dose Response HTS to Identify Activators of 5'UTR Stem-Loop Driven Prion Protein mRNA Translation in H4 Neuroglioblastoma Cells. [Related pubchem assays: 1829 (Project Summary), 1814 (Primary HTS)]; format: functional; details: Homo sapiens
Cytochrome P450 3A4 = Cytochrome P450 3A4 (Homo sapiens, UniProt P08684);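 note: CYP3A4 tested as one member of a cytochrome P450 panel screen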
[13] = target: Heat shock protein HSP 90-alpha (Homo sapiens, UniProt P07900); assay: Luminescence-based dose response biochemical high throughput screening assay for inhibitors of the Heat Shock Protein 90 (HSP90). [Related pubchem assays: 1831 (Summary AID.), 1846 (Confirmation screen.), 1789 (Primary screen.)]
HT-1080 = assay: HT1080 cell viability loss – fluorescence readout (AID 620); format: functional, cell-based; details: Homo sapiens
[14] = HepG2 hepatoma cell viability loss – plate reader, dry powder, cytotoxicity control, dose response (AID 651947); format: functional, cell-based
[15] = viability loss in HEK293T cells – cell-based, CellTiter-Glo luminescence, dry powder, set 6, cytotoxicity control, dose response (AID 651949); format: functional; details: HEK293
[16] = target: T2, DNA repair protein RAD52 homolog (Homo sapiens, UniProt P43351); format: functional, biochemical
T2 sequence (P43351 whole entry): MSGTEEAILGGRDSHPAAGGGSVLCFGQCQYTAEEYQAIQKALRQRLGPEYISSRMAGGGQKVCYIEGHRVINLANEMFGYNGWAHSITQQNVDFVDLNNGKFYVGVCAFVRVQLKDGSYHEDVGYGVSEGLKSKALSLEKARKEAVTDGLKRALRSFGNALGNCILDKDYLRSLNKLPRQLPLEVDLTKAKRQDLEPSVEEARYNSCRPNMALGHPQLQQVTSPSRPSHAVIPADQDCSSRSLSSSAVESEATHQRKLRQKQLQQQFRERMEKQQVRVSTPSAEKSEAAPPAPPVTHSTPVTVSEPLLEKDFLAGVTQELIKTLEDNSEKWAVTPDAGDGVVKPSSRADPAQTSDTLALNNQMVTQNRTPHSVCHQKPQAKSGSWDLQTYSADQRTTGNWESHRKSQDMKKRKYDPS

[17] = target: 5-hydroxytryptamine receptor 1A (Homo sapiens, UniProt P08908); format: functional
Protein Wnt-3a = Protein Wnt-3a (Mus musculus, UniProt P27467); assay: antagonism of Wnt3a pathway luciferase reporter – Wnt-LIGHT cells, luminescence, selectivity assay for Gli-SUFU antagonist project, dose response (AID 651570); format: functional; details: read-out: IC50_Mean;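 note: Wnt-LIGHT reporter cells stimulated with conditioned medium from Wnt3a-producing cells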
INS1 = assay: INS-1E survival protection against cytokine death – cell-based, luminescence, retest, dose response (AID 449756); format: functional; details: Rattus norvegicus;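 note: cell death triggered by IL-1 beta plus TNF-alpha plus IFN-gamma mixture; protective hits raise ATP signal compared with cytokine alone wells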
[18] = rise of 4N DNA cells, HeLa – IC50, dose response (AID 1117351); format: functional, cell-based
[19] = rise of 2N DNA cells, HeLa – IC50, dose response (AID 1117349); format: functional, cell-based
[20] = target: Protein-tyrosine kinase 2-beta (Homo sapiens, UniProt Q14289);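 note: potency of inhibitors of PYK2 kinase phosphorylation of poly-GT substrate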
[21] = Dd2 malaria parasite growth inhibition potency – SYBR Green, dry powder samples, dose response (AID 1159566); format: functional, cell-based;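 note: potency for growth inhibition with lower SYBR green DNA signal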
[22] = growth inhibition of yeast DHODH-expressing 3D7 parasites – SYBR Green, dry powder samples, dose response (AID 1159570); format: functional, cell-based;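 note: parasite growth measured after 72 hours of compound exposure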
[23] = growth inhibition of PfATP4-mutant resistant parasites – NITD609-resistant line, SYBR Green, dry powder, dose response (AID 1159571); format: functional, cell-based;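 note: parasites synchronized at ring stage by sorbitol before testing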
[24] = toxicity to human HepG2 hepatoma cells – cell-based, plate reader, dry powder samples, cytotoxicity control, dose response (AID 1159569); format: functional;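 note: inhibitor potency with signal falling toward the positive control level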
[25] = P. falciparum Dd2 growth inhibitors, dose response, SYBR Green, cherry-picked samples (AID 1159567); format: functional, cell-based
[26] = Plasmodium falciparum Dd2 Sybr green parasite growth Measured in Cell-Based and Microorganism Combination System Using Plate Reader - 2153-01_Inhibitor_Dose_DryPowder_Activity_Set3.; format: functional
[27] = target: E3 ubiquitin-protein ligase UHRF1 (Homo sapiens, UniProt Q96T88); assay: Counterscreen for inhibitors of 5-meCpG-binding domain protein 2 (MBD2): TRFRET-based biochemical high throughput dose response assay to identify inhibitors of binding of ubiquitin-like with PHD and ring finger domains 1 (UHRF1) to methylated oligonucleotide.
Kallikrein-7 = Kallikrein-7 (Homo sapiens, UniProt P49862); assay: Fluorescence Intensity-based biochemical primary high throughput dose response assay to identify activators of kallikrein-7 (K7) zymogen.
[28] = target: Solute carrier family 12 member 2/member 5 (Homo sapiens, UniProt P55011+Q9H2X9); assay: KCC2 and NKCC1 inhibition by rubidium flux, cell-based, NKCC1 counter-screen (AID 1734); format: functional, HEK293
[29] = target: T3, Histone-lysine N-methyltransferase NSD2 (Homo sapiens, UniProt O96028); format: biochemical
T3 sequence (O96028 whole entry): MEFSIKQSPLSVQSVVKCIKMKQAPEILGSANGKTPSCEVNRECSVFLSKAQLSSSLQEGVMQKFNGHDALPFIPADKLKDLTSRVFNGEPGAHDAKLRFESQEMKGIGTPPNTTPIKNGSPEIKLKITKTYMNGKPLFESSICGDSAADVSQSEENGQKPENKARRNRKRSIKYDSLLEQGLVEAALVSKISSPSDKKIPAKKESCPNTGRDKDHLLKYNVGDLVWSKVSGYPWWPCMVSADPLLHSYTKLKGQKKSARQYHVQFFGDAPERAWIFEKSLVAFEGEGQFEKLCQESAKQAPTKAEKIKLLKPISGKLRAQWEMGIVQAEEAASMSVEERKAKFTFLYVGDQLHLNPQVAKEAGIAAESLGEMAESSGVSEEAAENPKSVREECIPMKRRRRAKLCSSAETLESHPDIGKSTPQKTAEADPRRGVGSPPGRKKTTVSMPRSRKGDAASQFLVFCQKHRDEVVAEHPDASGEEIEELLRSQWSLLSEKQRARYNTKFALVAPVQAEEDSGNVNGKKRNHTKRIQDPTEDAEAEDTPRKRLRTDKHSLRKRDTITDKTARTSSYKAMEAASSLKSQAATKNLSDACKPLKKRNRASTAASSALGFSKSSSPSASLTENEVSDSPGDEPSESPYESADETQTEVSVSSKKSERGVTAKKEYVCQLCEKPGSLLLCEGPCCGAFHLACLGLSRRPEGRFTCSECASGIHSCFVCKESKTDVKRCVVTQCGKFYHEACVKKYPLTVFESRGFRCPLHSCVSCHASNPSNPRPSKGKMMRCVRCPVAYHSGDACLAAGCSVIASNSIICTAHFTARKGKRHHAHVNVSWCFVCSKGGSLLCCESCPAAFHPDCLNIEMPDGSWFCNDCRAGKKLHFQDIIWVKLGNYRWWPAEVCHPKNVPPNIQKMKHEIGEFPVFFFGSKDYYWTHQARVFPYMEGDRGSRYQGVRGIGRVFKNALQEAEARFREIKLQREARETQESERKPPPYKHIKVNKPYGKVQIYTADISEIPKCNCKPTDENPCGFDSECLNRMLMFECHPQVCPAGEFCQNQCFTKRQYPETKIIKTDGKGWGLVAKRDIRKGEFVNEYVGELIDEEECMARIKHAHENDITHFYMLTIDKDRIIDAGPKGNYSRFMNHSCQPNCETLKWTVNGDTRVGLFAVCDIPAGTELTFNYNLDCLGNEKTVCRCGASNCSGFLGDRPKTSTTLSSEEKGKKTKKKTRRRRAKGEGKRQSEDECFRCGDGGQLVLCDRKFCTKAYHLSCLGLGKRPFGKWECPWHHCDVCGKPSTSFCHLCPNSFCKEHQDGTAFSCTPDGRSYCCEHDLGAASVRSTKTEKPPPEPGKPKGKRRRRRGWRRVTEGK

Vero = assay: inhibition of WNV-induced cytopathic effect – cell-based, CPE readout (AID 1621); format: functional; details: Chlorocebus sabaeus
Genome polyprotein = Genome polyprotein (Hepatitis C virus, UniProt Q2Q167); assay: disruption of hepatitis C core self-association – biochemical, TR-FRET, dose response (AID 2159); design: species or system Hepacivirus hominis;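 note: blocks dimerization of HCV core protein measured by TR-FRET between tagged core106 pairs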

Sequence of Aryl hydrocarbon receptor (P35869 whole entry): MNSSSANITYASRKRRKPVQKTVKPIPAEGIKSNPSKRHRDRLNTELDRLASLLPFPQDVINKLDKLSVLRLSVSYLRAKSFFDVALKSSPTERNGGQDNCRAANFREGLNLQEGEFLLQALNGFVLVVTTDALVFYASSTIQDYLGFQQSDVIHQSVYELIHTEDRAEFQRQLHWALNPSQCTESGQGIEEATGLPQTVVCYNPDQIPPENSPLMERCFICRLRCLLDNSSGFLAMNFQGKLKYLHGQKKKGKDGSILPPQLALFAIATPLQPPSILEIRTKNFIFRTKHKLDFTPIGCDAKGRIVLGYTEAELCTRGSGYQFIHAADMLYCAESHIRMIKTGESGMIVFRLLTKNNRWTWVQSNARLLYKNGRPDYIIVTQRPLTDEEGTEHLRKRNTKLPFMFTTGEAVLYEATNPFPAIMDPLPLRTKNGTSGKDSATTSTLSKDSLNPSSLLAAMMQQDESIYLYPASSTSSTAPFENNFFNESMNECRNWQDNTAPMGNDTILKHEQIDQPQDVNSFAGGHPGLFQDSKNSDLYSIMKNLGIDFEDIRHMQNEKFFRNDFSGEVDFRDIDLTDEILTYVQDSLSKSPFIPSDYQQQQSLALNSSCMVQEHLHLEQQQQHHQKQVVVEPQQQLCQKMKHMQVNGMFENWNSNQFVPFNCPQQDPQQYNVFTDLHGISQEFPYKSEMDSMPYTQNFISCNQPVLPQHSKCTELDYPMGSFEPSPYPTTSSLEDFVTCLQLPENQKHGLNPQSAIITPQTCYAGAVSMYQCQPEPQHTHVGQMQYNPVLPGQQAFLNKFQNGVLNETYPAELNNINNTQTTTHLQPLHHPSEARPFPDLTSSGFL
Sequence of Cytochrome P450 3A4 (P08684 whole entry): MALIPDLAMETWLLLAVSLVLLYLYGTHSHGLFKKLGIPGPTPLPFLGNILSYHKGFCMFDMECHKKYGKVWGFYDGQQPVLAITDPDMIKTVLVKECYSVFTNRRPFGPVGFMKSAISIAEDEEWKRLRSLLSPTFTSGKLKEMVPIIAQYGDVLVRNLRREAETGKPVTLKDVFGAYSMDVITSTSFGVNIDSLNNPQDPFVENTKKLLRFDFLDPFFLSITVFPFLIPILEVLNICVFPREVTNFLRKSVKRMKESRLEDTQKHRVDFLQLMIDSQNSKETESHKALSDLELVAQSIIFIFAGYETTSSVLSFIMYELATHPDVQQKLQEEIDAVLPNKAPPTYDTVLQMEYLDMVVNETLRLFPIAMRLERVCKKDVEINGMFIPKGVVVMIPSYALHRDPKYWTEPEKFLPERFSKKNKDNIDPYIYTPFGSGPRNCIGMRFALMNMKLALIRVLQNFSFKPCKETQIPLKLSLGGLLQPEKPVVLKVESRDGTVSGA
Sequence of Peroxisome proliferator-activated receptor gamma/Nuclear receptor corepressor 2 (P37231 whole entry): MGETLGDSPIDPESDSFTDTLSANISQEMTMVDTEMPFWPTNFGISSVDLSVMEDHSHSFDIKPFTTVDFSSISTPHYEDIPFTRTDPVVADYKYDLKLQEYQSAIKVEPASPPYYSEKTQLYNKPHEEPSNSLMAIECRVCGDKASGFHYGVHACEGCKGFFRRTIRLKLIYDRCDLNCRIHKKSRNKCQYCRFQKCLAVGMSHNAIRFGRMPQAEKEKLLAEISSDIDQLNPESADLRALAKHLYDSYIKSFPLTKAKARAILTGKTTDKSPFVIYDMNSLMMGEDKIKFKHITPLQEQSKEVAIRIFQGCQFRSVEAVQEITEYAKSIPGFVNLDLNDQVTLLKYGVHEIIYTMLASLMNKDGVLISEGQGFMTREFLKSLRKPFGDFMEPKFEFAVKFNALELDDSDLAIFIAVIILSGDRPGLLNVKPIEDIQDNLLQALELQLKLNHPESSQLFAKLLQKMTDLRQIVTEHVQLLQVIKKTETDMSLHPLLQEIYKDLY
Sequence of Peroxisome proliferator-activated receptor gamma/Nuclear receptor corepressor 2 (Q9Y618 whole entry): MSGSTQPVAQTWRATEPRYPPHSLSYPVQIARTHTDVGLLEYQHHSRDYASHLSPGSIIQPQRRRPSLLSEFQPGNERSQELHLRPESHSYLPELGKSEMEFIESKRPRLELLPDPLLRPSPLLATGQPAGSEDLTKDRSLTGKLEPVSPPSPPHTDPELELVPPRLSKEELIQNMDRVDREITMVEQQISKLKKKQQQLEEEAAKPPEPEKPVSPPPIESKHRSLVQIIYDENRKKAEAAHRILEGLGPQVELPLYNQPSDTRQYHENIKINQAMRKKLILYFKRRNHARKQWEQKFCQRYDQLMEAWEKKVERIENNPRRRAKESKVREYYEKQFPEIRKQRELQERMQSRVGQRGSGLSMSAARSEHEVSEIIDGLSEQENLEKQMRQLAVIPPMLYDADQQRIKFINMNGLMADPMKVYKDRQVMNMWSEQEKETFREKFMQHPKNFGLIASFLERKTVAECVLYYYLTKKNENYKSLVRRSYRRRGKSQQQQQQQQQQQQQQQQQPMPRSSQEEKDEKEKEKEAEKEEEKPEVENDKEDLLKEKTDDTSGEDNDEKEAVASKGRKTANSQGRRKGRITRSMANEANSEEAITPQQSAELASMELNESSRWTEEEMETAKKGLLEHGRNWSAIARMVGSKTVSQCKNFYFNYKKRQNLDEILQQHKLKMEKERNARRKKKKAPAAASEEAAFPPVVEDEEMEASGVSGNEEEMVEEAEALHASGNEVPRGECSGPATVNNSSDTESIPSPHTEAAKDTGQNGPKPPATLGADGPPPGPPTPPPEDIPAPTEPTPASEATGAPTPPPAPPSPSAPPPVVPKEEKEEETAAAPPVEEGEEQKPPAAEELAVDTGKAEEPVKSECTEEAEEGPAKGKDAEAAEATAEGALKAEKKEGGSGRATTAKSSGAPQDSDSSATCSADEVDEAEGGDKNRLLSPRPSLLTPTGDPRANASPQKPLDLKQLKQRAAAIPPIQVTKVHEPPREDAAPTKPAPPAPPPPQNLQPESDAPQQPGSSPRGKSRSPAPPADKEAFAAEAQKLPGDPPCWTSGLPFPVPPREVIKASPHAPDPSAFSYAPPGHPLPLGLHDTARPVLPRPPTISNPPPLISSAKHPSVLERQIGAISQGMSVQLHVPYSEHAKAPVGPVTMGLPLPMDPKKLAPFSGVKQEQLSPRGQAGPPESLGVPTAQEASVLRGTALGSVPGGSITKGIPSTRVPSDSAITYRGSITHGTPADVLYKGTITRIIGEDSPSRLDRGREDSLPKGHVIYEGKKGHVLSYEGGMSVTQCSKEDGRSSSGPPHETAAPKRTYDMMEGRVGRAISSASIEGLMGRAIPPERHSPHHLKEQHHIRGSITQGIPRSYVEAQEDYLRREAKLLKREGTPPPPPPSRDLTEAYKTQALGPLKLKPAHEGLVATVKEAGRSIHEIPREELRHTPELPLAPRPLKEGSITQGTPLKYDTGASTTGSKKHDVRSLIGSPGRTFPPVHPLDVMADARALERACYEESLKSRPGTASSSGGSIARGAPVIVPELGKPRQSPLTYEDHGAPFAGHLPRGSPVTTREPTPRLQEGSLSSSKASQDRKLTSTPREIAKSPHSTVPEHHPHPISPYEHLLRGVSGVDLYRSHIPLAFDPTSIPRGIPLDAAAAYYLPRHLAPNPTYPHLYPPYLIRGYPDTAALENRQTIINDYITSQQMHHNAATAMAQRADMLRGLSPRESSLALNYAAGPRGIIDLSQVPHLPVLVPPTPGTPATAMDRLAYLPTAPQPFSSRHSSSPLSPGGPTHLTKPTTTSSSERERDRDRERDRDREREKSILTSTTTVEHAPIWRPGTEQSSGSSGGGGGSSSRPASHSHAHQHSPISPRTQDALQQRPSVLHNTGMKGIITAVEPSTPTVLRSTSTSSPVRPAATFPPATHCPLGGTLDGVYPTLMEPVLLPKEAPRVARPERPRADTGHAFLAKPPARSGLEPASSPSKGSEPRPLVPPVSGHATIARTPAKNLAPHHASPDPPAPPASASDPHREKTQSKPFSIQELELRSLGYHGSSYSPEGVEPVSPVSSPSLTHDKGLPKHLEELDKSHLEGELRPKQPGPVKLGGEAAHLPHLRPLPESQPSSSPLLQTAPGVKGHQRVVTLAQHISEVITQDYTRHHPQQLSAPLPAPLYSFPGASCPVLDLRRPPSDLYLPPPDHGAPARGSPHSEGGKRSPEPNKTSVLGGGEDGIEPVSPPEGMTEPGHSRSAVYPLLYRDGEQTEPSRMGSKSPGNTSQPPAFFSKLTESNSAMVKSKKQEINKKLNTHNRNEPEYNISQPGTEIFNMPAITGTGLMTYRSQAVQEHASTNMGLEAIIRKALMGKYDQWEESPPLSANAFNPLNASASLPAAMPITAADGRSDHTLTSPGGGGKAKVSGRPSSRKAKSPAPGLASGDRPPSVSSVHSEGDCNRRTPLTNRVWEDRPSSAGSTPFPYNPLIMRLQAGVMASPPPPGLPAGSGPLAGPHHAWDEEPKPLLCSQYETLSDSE
Sequence of NAD-dependent protein deacylase sirtuin-5, mitochondrial (Q9NXA8 whole entry): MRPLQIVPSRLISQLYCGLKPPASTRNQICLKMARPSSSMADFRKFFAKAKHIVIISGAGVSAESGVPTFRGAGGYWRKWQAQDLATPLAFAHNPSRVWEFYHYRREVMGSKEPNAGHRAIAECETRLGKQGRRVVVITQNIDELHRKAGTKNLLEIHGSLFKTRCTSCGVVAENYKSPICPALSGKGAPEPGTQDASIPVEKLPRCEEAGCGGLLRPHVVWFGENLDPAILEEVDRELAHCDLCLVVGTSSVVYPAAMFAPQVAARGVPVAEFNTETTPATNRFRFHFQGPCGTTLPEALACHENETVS
Sequence of Protein Wnt-3a (P27467 whole entry): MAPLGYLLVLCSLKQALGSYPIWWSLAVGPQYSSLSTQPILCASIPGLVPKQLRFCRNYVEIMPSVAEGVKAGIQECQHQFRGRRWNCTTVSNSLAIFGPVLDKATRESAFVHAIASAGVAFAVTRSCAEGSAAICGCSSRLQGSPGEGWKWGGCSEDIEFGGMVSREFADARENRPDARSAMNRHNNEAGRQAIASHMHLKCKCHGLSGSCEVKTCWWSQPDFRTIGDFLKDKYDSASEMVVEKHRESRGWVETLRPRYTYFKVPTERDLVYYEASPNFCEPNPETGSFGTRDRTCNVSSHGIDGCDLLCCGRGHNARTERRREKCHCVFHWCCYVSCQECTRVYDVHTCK

Cc1ccc2[nH]c(CSc3nc(C)ccc3C#N)nc2c1
AC50 [1]: > 52 µM (inactive)
AC50 [2]: > 52 µM (inactive)
EC50 (cells): > 67.5 µM (inactive)
AC50 [3]: 33.5 µM (active)
EC50 [4]: > 120 µM (not active)
EC50 [5]: > 67.5 µM (inactive)
AC50 [6]: 30.8 µM (active)

Cc1noc(C)c1S(=O)(=O)Nc1ccc2c(c1)C(=O)N([C@@H](C)CO)C[C@@H](C)[C@@H](CN(C)Cc1ccc(C(F)(F)F)cc1)OCCCC[C@@H](C)O2
AbsAC35 [7]: 38.34 µM
AC50 [8]: > 15 µM (inactive)

COc1ccc(C(=O)NCc2ccc(-c3nc4ccccc4s3)cc2)cc1OC
IC50 [9]: 5.83 µM (active)
IC50 [10]: 6.27 µM (active)

Cc1ccc(/C=N/n2cc(-c3ccccc3)nc2S)s1
EC50 [11]: 10.4 µM (active)
EC50 [12]: 1.44 µM (active)
EC50 (H4): 20 µM (active)

CCOC(=O)C1CCCN(C(=O)c2sc3nc(-c4ccc(OC)cc4)cn3c2C)C1 (stereo not drawn)
AC50 (Cytochrome P450 3A4): 14.1 µM (inconclusive)
IC50 [13]: 5.85 µM (active)

COc1ccc2[nH]c(-c3ccc(N)cc3)nc2c1
EC50 (HT-1080): > 50 µM (not active)

[O-][S+](Cc1cn(Cc2ccc(F)cc2)nn1)c1nnc(-c2ccc(Cl)cc2)o1 (stereo not drawn)
AC50 [14]: 15.1 µM (active)
AC50 [15]: 17.2 µM (active)

Cc1[nH]c2ccccc2c1C1=CCNCC1
AC50 [16]: 4.56 µM (active)
EC50 [17]: > 50 µM (not active)

CCCCCCC[N+](CC)(CC)CCCCc1ccc(Cl)cc1
IC50 (Protein Wnt-3a): 2.74 µM (active)
AC50 (INS1): 4.29 µM (active)
IC50 [18]: > 10 µM (inactive)
IC50 [19]: > 10 µM (inactive)

NC(=O)c1sc2nc3c(c(-c4ccco4)c2c1N)CCC3
IC50 [20]: 10.2 µM (not active)

CC(C)NC(=O)N1[C@H](C#N)[C@H](c2ccc(C#CC3CCCC3)cc2)[C@@H]1CO
AC50 [21]: 0.684 µM (active)
AC50 [22]: 3.52 µM (active)
AC50 [23]: 0.887 µM (active)
AC50 [24]: 36.7 µM (active)
AC50 [25]: 0.803 µM (active)
AC50 [26]: 0.845 µM (active)

CC(=O)Nc1sc2c(c1-c1nc3ccccc3s1)CCN(C(C)C)CC2
IC50 [27]: 16.9 µM (inactive)

Cc1ccc2nc(NCC(=O)O)nc(-c3ccccc3)c2c1
EC50 (Kallikrein-7): 14.5 µM (inactive)

O=C(CCS(=O)(=O)Cc1ccccc1)Nc1nc2c(s1)CCCC2
IC50 [28]: 13.4 µM (active)

COc1ccc(-c2csc(N(CCCN(C)C)C(=O)c3ccccc3Cl)n2)cc1
AC50 [29]: > 20 µM (inactive)
IC50 (Vero): 25 µM (active)

COc1ccc(C(=O)NC(=S)Nc2ccc3[nH]c(=O)[nH]c3c2)c(OC)c1
IC50 (Genome polyprotein): > 49.8 µM (not active)
